Test results published in patent US20150291565A1, “INDOLE COMPOUNDS AND THEIR USE AS ANTIMICROBIALS” (Memorial Sloan-Kettering Cancer Center, priority 2012, published 2015).
≈ marks a conversion by molar mass, not a printed value. Where two headings read alike, the source gives them in different places. Values belong to the molecule of their own block, whether it stands above or below them.

How the values were obtained:
MRSA = test: Disk diffusion assay, zone of inhibition, MRSA; assay type: cell-based, Staphylococcus aureus; settings: disk diffusion zone of inhibition
M. smegmatis (mc2155) = test: Disk diffusion assay, zone of inhibition, M. smegmatis; assay type: cell-based; settings: disk diffusion zone of inhibition
[1] = tested on: S. aureus ATCC 29213 (MSSA); test: Broth dilution MIC, S. aureus ATCC 29213; assay type: cell-based; settings: Staphylococcus aureus
[2] = tested on: S. aureus ATCC 33591 (MRSA); test: Broth dilution MIC, S. aureus ATCC 33591; assay type: cell-based; settings: Staphylococcus aureus
S. aureus BAA-39 (MDR) = test: Broth dilution MIC, S. aureus BAA-39; assay type: cell-based; settings: Staphylococcus aureus, BAA39
[3] = tested on: S. pneumoniae ATCC 6301 (PSSP); test: Broth dilution MIC, S. pneumoniae ATCC 6301; assay type: cell-based; settings: Streptococcus pneumoniae
[4] = tested on: S. pneumoniae ATCC 700674 (PRSP); test: Broth dilution MIC, S. pneumoniae ATCC 700674; assay type: cell-based; settings: Streptococcus pneumoniae
[5] = tested on: E. faecalis ATCC 29212 (VRE); test: Broth dilution MIC, E. faecalis ATCC 29212; assay type: cell-based
[6] = tested on: E. faecium ATCC 700221 (VRE); test: Broth dilution MIC, E. faecium ATCC 700221; assay type: cell-based
E. faecium CT-26 = test: Broth dilution MIC, E. faecium CT-26; assay type: cell-based; settings: Enterococcus faecium
E. coli ECM 1694 = test: Broth dilution MIC, E. coli ECM 1694; assay type: cell-based; settings: Escherichia coli
E. coli ATCC 25922 = test: Broth dilution MIC, E. coli ATCC 25922; assay type: cell-based; settings: Escherichia coli
K. pneumoniae ATCC 13883 = test: Broth dilution MIC, K. pneumoniae ATCC 13883; assay type: cell-based; settings: Klebsiella pneumoniae
K. pneumoniae ATCC 51503 = test: Broth dilution MIC, K. pneumoniae ATCC 51503; assay type: cell-based; settings: Klebsiella pneumoniae
P. aeruginosa ATCC 9027 = test: Broth dilution MIC, P. aeruginosa ATCC 9027; assay type: cell-based; settings: Pseudomonas aeruginosa
C. albicans ATCC 14053 = test: Broth dilution MIC, C. albicans ATCC 14053; assay type: cell-based; settings: Candida albicans, ATCC14053; Table 1; range 64 down to 0.12 μg/ml
Method: In vitro Anti-bacterial & Anti-fungal Activity Assay: All test compounds were prepared as 6.4 mg/ml stock solutions in DMSO and further diluted according to the NCCLS M7-A6 (Page 5) document with sterile water or appropriate diluent. A working stock of 256 μg/ml was used to do 1:2 serial dilutions in 96-well plates. […] The inoculums were prepared by making a direct sterile water suspension of isolated colonies from 18 to 24 hr agar plates for all organisms (Mueller Hinton, Blood Agar or SDA plates). Each bacterial suspension was adjusted to read between 0.09 and 0.11 absorbance at 620 nm. […] These were further diluted 1/100 in appropriate broth for inoculating the 96-well plates. The C. albicans suspension was adjusted to read between 70 and 75% Transmittance at 530 nm and then diluted 1/500 in RPMI+MOPS broth. All aerobic bacterial and fungal plates were incubated for 18 hrs. at 35° C. […] Plates were read using a Beckman Automated Plate Reader at 650 nm. Readings were confirmed by visual examination of plates. (See Table 1, Table 2, Table 3, and Table 4). […] It is important to note that positive results against C. albicans are often indicative of broad spectrum antifungal activity, while negative results are not necessarily conclusory of a lack of activity against other fungus.

E. coli (ATCC 25922) = test: Septicemia survival model in neutropenic CD1 mice, E. coli; assay type: in vivo; settings: 10 mg/kg BID SC

MIC ([1]; Table 1, range 64 down to 0.12 μg/ml, read-out: MIC S. aureus ATCC 29213): 2 µg/mL (≈ 5.35 µM)
MIC ([1]; Table 2, broth dilution MIC in ug/ml, read-out: MIC S aureus ATCC 29213 MSSA): 2 µg/mL (≈ 5.35 µM)
MIC ([2]; Table 1, range 64 down to 0.12 μg/ml, read-out: MIC S. aureus ATCC 33591): 2 µg/mL (≈ 5.35 µM)
MIC ([2]; Table 2, broth dilution MIC in ug/ml, read-out: MIC S aureus ATCC 33591 MRSA): 2 µg/mL (≈ 5.35 µM)
MIC (S. aureus BAA-39 (MDR); Table 1, range 64 down to 0.12 μg/ml, read-out: MIC S. aureus BAA-39): 2 µg/mL (≈ 5.35 µM)
MIC (S. aureus BAA-39 (MDR); Table 2, broth dilution MIC in ug/ml, read-out: MIC S aureus BAA-39 MDR): 2 µg/mL (≈ 5.35 µM)
MIC ([3]; ATCC6301, Table 1, range 64 down to 0.12 μg/ml, read-out: MIC S. pneumoniae ATCC 6301): 4 µg/mL (≈ 10.7 µM)
MIC ([3]; ATCC6301, Table 2, broth dilution MIC in ug/ml, read-out: MIC S pneumonia ATCC 6301 PSSP): 4 µg/mL (≈ 10.7 µM)
MIC ([4]; Table 1, range 64 down to 0.12 μg/ml, read-out: MIC S. pneumoniae ATCC 700674): 32 µg/mL (≈ 85.7 µM)
MIC ([4]; Table 2, broth dilution MIC in ug/ml, read-out: MIC S pneumonia ATCC 700674 PRSP): 32 µg/mL (≈ 85.7 µM)
MIC ([5]; Enterococcus faecalis, Table 1, range 64 down to 0.12 μg/ml, read-out: MIC E. faecalis ATCC 29212): 16 µg/mL (≈ 42.8 µM)
MIC ([5]; Table 2, broth dilution MIC in ug/ml, read-out: MIC E faecalis ATCC 29212 VRE): 16 µg/mL (≈ 42.8 µM)
MIC ([6]; Enterococcus faecium, Table 1, range 64 down to 0.12 μg/ml, read-out: MIC E. faecium ATCC 700221): 16 µg/mL (≈ 42.8 µM)
MIC ([6]; Table 2, broth dilution MIC in ug/ml, read-out: MIC E faecium ATCC 700221 VRE): 16 µg/mL (≈ 42.8 µM)
MIC (E. faecium CT-26; CT26, Table 1, range 64 down to 0.12 μg/ml, read-out: MIC E. faecium CT-26): 16 µg/mL (≈ 42.8 µM)
MIC (E. faecium CT-26; CT26, Table 2, broth dilution MIC in ug/ml, read-out: MIC E faecium CT-25): 16 µg/mL (≈ 42.8 µM)
MIC (E. coli ECM 1694; ECM1694, Table 1, range 64 down to 0.12 μg/ml, read-out: MIC E. coli ECM 1694): 0.25 µg/mL (≈ 0.669 µM)
MIC (E. coli ECM 1694; ECM1694, Table 2, broth dilution MIC in ug/ml, read-out: MIC E. coli ECM 1693): 0.25 µg/mL (≈ 0.669 µM)
MIC (E. coli ATCC 25922; ATCC 25921 / ATCC 25922, Table 2, broth dilution MIC in ug/ml, read-out: MIC E. coli ATCC 25921): 2 µg/mL (≈ 5.35 µM)
MIC (E. coli ATCC 25922; ATCC25922, Table 1, range 64 down to 0.12 μg/ml, read-out: MIC E. coli ATCC 25922): 2 µg/mL (≈ 5.35 µM)
MIC (K. pneumoniae ATCC 13883; ATCC13883, Table 1, range 64 down to 0.12 μg/ml, read-out: MIC K. pneumoniae ATCC 13883): > 64 µg/mL
MIC (K. pneumoniae ATCC 13883; ATCC13883, Table 2, broth dilution MIC in ug/ml, read-out: MIC K pneumonia ATCC 13883): 64 µg/mL (≈ 171 µM)
MIC (K. pneumoniae ATCC 51503; ATCC51503, Table 1, range 64 down to 0.12 μg/ml, read-out: MIC K. pneumoniae ATCC 51503): > 64 µg/mL
MIC (K. pneumoniae ATCC 51503; ATCC51503, Table 2, broth dilution MIC in ug/ml, read-out: MIC K pneumonia ATCC 51503): 64 µg/mL (≈ 171 µM)
MIC (P. aeruginosa ATCC 9027; ATCC 9026 / ATCC 9027, Table 2, broth dilution MIC in ug/ml, read-out: MIC P aeruginosa ATCC 9026): 64 µg/mL (≈ 171 µM)
MIC (P. aeruginosa ATCC 9027; ATCC9027, Table 1, range 64 down to 0.12 μg/ml, read-out: MIC P. aeruginosa ATCC 9027): > 64 µg/mL
MIC (C. albicans ATCC 14053): 32 µg/mL (≈ 85.7 µM)
Molecule: CN1CCC(Nc2ccc(-c3cc4ccc(C5=NCCN5)cc4[nH]3)cc2)CC1 [SKI-7]
Zone Size MRSA (MRSA): 19 mm
Zone Size M. smegmatis (M. smegmatis (mc2155)): 30 mm

Molecule: Gentamicin [reference compound]
Percent Survival Day 1 (E. coli (ATCC 25922)): 100%
Percent Survival Day 2 (E. coli (ATCC 25922)): 100%
Percent Survival Day 3 (E. coli (ATCC 25922)): 80%
Percent Survival Day 4 (E. coli (ATCC 25922)): 60%
Percent Survival Day 5 (E. coli (ATCC 25922)): 60%
Percent Survival Day 6 (E. coli (ATCC 25922)): 60%
Percent Survival Day 7 (E. coli (ATCC 25922)): 60%
